The source made the active and inactive calls. No cut-off for these calls is given here.
Assays:
Huh-7 [1] = assay: Cell cycle arrest in human Huh-7 cells assessed as accumulation of cells at S phase at 30 nM measured after 24 hrs incubation by PI staining based flow cytometry (reference value: 33.15%); assay type: functional
Huh-7 [2] = assay: In vivo antitumor activity against human Huh-7 cells xenografted in female BALB/c mouse assessed as reduction in tumor volume at 0.5 mg/kg, iv total 4 doses measured on day 17 relative to control; assay type: functional; design: scale not given: the % may be the effect or the level left; conditions: time 17 day
Huh-7 [3] = assay: Cell cycle arrest in human Huh-7 cells assessed as accumulation of cells at S phase at 100 nM measured after 24 hrs incubation by PI staining based flow cytometry (reference value: 33.15%); assay type: functional
Huh-7 [4] = assay: In vivo apoptotic activity against human Huh-7 cells xenografted in female BALB/c mouse assessed as tumor apoptosis at 2 mg/kg, iv total 4 doses measured on day 17 relative to control by TUNEL assay; assay type: functional, organism-based; conditions: time 17.0 day
Huh-7 [5] = assay: Induction of immunogenic cell death (ICD) in human Huh-7 cells assessed as translocation of HMGB1 from nucleus to cytoplasm at 100 nM measured after 24 hrs by immunofluorescence assay; assay type: functional, cell-based
Huh-7 [6] = assay: Cell cycle arrest in human Huh-7 cells assessed as accumulation of cells at G0/G1 phase at 50 nM measured after 24 hrs incubation by PI staining based flow cytometry (reference value: 44.20%); assay type: functional
LX-2 [7] = assay: Cell cycle arrest in human LX-2 cells assessed as accumulation of cells at G2/M phase at 10 nM measured after 24 hrs incubation by PI staining based flow cytometry (reference value: 14.65%); assay type: functional
Huh-7 [8] = assay: Cell cycle arrest in human Huh-7 cells assessed as accumulation of cells at phase G2/M at 50 nM measured after 24 hrs incubation by PI staining based flow cytometry (reference value: 18.42%); assay type: functional
Huh-7 [9] = assay: Induction of immunogenic cell death (ICD) in human Huh-7 cells assessed as externalization of calreticulin (CALR) on the cell membrane at 100 nM measured after 24 hrs by immunofluorescence assay; assay type: functional, cell-based
Hep 3B2 [10] = assay: Cell cycle arrest in human Hep3B cells assessed as accumulation of cells at G0/G1 phase at 30 nM measured after 24 hrs incubation by PI staining based flow cytometry (reference value: 48%); assay type: functional
Huh-7 [11] = assay: In vivo antitumor activity against human Huh-7 cells xenografted in female BALB/c mouse assessed as delay in tumor growth at 1 mg/kg, iv followed by irradiated with 2 Gy for 2 consecutive days, once a week for 3 weeks measured on day 22; assay type: functional, organism-based; conditions: time 22.0 day
Hep 3B2 [12] = assay: Cell cycle arrest in human Hep3B cells assessed as accumulation of cells at S phase at 30 nM measured after 24 hrs incubation by PI staining based flow cytometry (reference value: 28.91%); assay type: functional
Huh-7 [13] = assay: Cell cycle arrest in human Huh-7 cells assessed as accumulation of cells at G2/M phase at 10 nM measured after 24 hrs incubation by PI staining based flow cytometry (reference value: 18.88%); assay type: functional
LX-2 [14] = assay: Cell cycle arrest in human LX-2 cells assessed as accumulation of cells at S phase at 100 nM measured after 24 hrs incubation by PI staining based flow cytometry (reference value: 36.93%); assay type: functional
Huh-7 [15] = assay: Cell cycle arrest in human Huh-7 cells assessed as accumulation of cells at G0/G1 phase at 50 nM measured after 18 hrs incubation by PI staining based flow cytometry (reference value: 44.20%); assay type: functional
Huh-7 [16] = assay: In vivo antitumor activity against human Huh-7 cells xenografted in female BALB/c mouse assessed as gamma-H2AX positive cells at 1 mg/kg, iv followed by irradiated with 2 Gy for 2 consecutive days, once a week for 3 weeks measured on day 22; assay type: functional, organism-based; conditions: time 22.0 day
Huh-7 [17] = assay: In vivo antitumor activity against human Huh-7 cells xenografted in female BALB/c mouse assessed as delay in tumor growth at 1 mg/kg, iv for 2 consecutive days, once a week for 3 weeks measured on day 22; assay type: functional, organism-based; conditions: time 22.0 day
Huh-7 [18] = assay: Induction of radiation induced gamma-H2AX phosphorylation in human irradiated Huh-7 cells at 100 nM measured after 24 hrs by Western blot analysis; assay type: functional, cell-based
Huh-7 [19] = assay: In vivo antitumor activity against human Huh-7 cells xenografted in female BALB/c mouse assessed as reduction in tumor volume at 2 mg/kg, iv total 4 doses measured on day 17 relative to control; assay type: functional; design: scale not given: the % may be the effect or the level left; conditions: time 17 day
LX-2 [20] = assay: Cell cycle arrest in human LX-2 cells assessed as accumulation of cells at G0/G1 phase at 30 nM measured after 24 hrs incubation by PI staining based flow cytometry (reference value: 48.42%); assay type: functional
Huh-7 [21] = assay: Cell cycle arrest in human Huh-7 cells assessed as accumulation of cells at G0/G1 phase at 100 nM measured after 24 hrs incubation by PI staining based flow cytometry (reference value: 47.97%); assay type: functional
Huh-7 [22] = assay: Cell cycle arrest in human Huh-7 cells assessed as accumulation of cells at G0/G1 phase at 50 nM measured after 30 hrs incubation by PI staining based flow cytometry (reference value: 44.20%); assay type: functional
Hep 3B2 [23] = assay: Cell cycle arrest in human Hep3B cells assessed as accumulation of cells at G0/G1 phase at 10 nM measured after 24 hrs incubation by PI staining based flow cytometry (reference value: 48%); assay type: functional
Huh-7 [24] = assay: In vivo antitumor activity against human Huh-7 cells xenografted in female BALB/c mouse assessed as reduction in Ki67 expression in tumor at 2 mg/kg, iv total 4 doses measured on day 17 relative to control; assay type: functional, organism-based; conditions: time 17.0 day
Huh-7 [25] = assay: Cell cycle arrest in human Huh-7 cells assessed as accumulation of cells at phase G2/M at 50 nM measured after 18 hrs incubation by PI staining based flow cytometry (reference value: 18.42%); assay type: functional
LX-2 [26] = assay: Cell cycle arrest in human LX-2 cells assessed as accumulation of cells at S phase at 30 nM measured after 24 hrs incubation by PI staining based flow cytometry (reference value: 36.93%); assay type: functional
Huh-7 [27] = assay: Induction of DNA damage in human irradiated Huh-7 cells assessed as increase in DNA double break by measuring gamma-H2AX foci formation at 100 nM measured after 24 hrs by immunostaining assay relative to compound alone/irradiation alone; assay type: functional, cell-based
LX-2 [28] = assay: Cell cycle arrest in human LX-2 cells assessed as accumulation of cells at G0/G1 phase at 10 nM measured after 24 hrs incubation by PI staining based flow cytometry (reference value: 48.42%); assay type: functional
LX-2 [29] = assay: Cell cycle arrest in human LX-2 cells assessed as accumulation of cells at G2/M phase at 100 nM measured after 24 hrs incubation by PI staining based flow cytometry (reference value: 14.65%); assay type: functional
Huh-7 [30] = assay: Cell cycle arrest in human Huh-7 cells assessed as accumulation of cells at G2/M phase at 30 nM measured after 24 hrs incubation by PI staining based flow cytometry (reference value: 18.88%); assay type: functional
Huh-7 [31] = assay: Radiosensitivity in human Huh-7 cells assessed as […] pre-treated overnight at 10 nM followed by irradiated with 2 Gy and measured after 14 days post treatment by crystal staining based clonogenic assay relative to compound alone/irradiation alone; assay type: functional; conditions: time 14.0 day
Huh-7 [32] = assay: Decrease in CDC25C expression in human irradiated Huh-7 cells at 100 nM measured after 24 hrs by Western blot analysis; assay type: functional, cell-based

Compound `CC[C@H](C)[C@@H]([C@@H](CC(=O)N1CCC[C@H]1[C@H](OC)[C@@H](C)C(=O)N[C@H](C)[C@@H](O)c1ccccc1)OC)N(C)C(=O)[C@@H](NC(=O)[C@H](C(C)C)N(C)C(=O)OCc1ccc(NC(=O)[C@H](CCCNC(N)=O)NC(=O)[C@@H](NC(=O)CCCCCN2C(=O)CC(SC[C@H](N)C(=O)N[C@@H](CO)C(=O)N[C@@H](CC(N)=O)C(=O)N[C@@H](CC(=O)O)C(=O)N[C@@H](CCCNC(=N)N)C(=O)N3CCC[C@@H]3C(=O)N3CCC[C@@H]3C(=O)N[C@@H](CC(N)=O)C(=O)N[C@H](C(=O)N[C@@H](CC(C)C)C(=O)N[C@@H](CCC(N)=O)C(=O)N[C@@H](CCCCN)C(=O)N[C@@H](CCCNC(=N)N)C(N)=O)[C@@H](C)CC)C2=O)C(C)C)cc1)C(C)C` (some centres not stated) has an Activity (Huh-7 [1]) of 13.76%, an Activity (Huh-7 [2]) of 15% and an Activity (Huh-7 [3]) of 11.54%. The Activity (Huh-7 [4]) was “Active”, the Activity (Huh-7 [5]) was “Active” and the Activity (Huh-7 [6]) was 28.27%. For the same compound, the Activity (LX-2 [7]) was 13.04%, the Activity (Huh-7 [8]) was 56.79% and the Activity (Huh-7 [9]) was “Active”. The Activity (Hep 3B2 [10]) was 28.5%, the Activity (Huh-7 [11]) was “Active” and the Activity (Hep 3B2 [12]) was 26.35%. For the same compound, the Activity (Huh-7 [13]) was 35.65%, the Activity (LX-2 [14]) was 37.25% and the Activity (Huh-7 [15]) was 31.13%. For the same compound, the Activity (Huh-7 [16]) was “Active”, the Activity (Huh-7 [17]) was “Active” and the Activity (Huh-7 [18]) was “Active”. It also gave an Activity (Huh-7 [19]) of 66%, an Activity (LX-2 [20]) of 46.22% and an Activity (Huh-7 [21]) of 12.12%. For the same compound, the Activity (Huh-7 [22]) was 31.74%, the Activity (Hep 3B2 [23]) was 41.26% and the Activity (Huh-7 [24]) was “Active”. For the same compound, the Activity (Huh-7 [25]) was 44.55%, the Activity (LX-2 [26]) was 38.52% and the Activity (Huh-7 [27]) was “Active”. The Activity (LX-2 [28]) was 48.82%, the Activity (LX-2 [29]) was 23.65% and the Activity (Huh-7 [30]) was 49.02%. The Activity (Huh-7 [31]) was “Active” and the Activity (Huh-7 [32]) was “Active”.

From ChEMBL document CHEMBL6182945, “MMAE-Based Peptide-Drug Conjugates Targeting GPC3 for Precision Chemoradiotherapy in Hepatocellular Carcinoma” (J Med Chem, 2025)
